Data: patent US20010021394A1, “Induction of a cellular stress response with heavy metal salts” (priority 1996, published 2001)

Columns and labels:
spinal cord ischemia = experiment: Acute spinal cord ischemia in the rabbit (aortic occlusion, neurologic function after reperfusion); type: in vivo, New Zealand white rabbits; settings: 0.15 mg per kilogram subcutaneous, sixteen hours prior to 20 minutes aortic occlusion at 37° C., evaluated 24 hours after reperfusion, four animals
Text: New Zealand white rabbits were stress conditioned and subjected to spinal cord ischemia using methods similar to those previously described in Perdrizet et al., “Stress conditioning: A novel approach to organ preservation”, Current Surgery, 46(1): 23-26 (January-February 1989), the contents of which are incorporated herein by reference in their entirety. The rabbits were subjected to spinal cord ischemia by occlusion of the infrarenal-abdominal aorta as an ischemic insult to the spinal cord, for 20 minutes at 37° C. The occlusion was then removed and blood flow re-established to the infra-renal aorta. Neurological function of the lower extremities was evaluated 24 hours after reperfusion. Four animals were pretreated with a subcutaneous injection in the rump region of stannous chloride (SnCl2) in a saline diluent at a dose of 0.15 mg per kilogram (0.00066 millimoles per kilogram), sixteen hours prior to aortic occlusion.

warm renal ischemia = experiment: Warm ischemic injury of the rat kidney (renal vascular resistance); type: in vivo, Male Sprague-Dawley rats; settings: following 60 minutes of warm ischemic injury, recorded as mm mercury/ml fluid/gram of tissue, control approximately 60, uninjured 43-44
Experimental: Male Sprague-Dawley rats were stress conditioned and subjected to warm ischemic injury using methods similar to those previously described in Perdrizet et al., supra. The non-treated control animals underwent 60 minutes of occlusion of the renal artery at 35-37° C. as an ischemic insult. Following the ischemic injury, flow was reestablished in the kidney and vascular resistance of the kidney was measured. To measure renal vascular resistance, a syringe system was attached to the renal artery, to give a constant flow rate of approximately 0.5 cc/minute. Since there was a constant flow rate, it was possible to measure the pressure generated in the syringe. The higher the pressure, the greater the resistance. Renal vascular resistance was recorded as mm mercury/ml fluid/gram of tissue.

For [Cl][Sn][Cl] [SnCl2, stannous chloride], which “Neurological function of the lower extremities” value (spinal cord ischemia) is on record?
Its value is “all four animals pretreated with SnCl2 had normal neurologic function”.

And the Renal vascular resistance (warm renal ischemia)?
The Renal vascular resistance was 45 resistance units.
